What was measured:
Format in all cases: cell-based
[1] = tested on: Rec-1 cells; experiment: Real-time PCR gene expression in Rec-1 cells; settings: 1, 10 or 100 μM, 24 or 48 hours, alone or with dexamethasone 10 nM
Method: (§1) After the cell treatment, total RNA was purified. Real-time PCR was performed with 100 ng of total RNA, using an Applied Biosystems 7500 instrument (Applied Biosystems, Foster City, Calif.) using TaqMan Sequence Detection chemistry which uses a fluorogenic probe (FAM) to enable the detection of a specific PCR product as it accumulates during PCR. Samples were prepared in triplicate in 50 μl reaction volumes. The 50 μl reactions consisted of 25 μl 2× TaqMan PCR master mix, 2.5 μl of 20× gene expression assay, 10 μl of RNA ([…]) and 12.5 μl water. Glyceraldehyde-3-phosphate dehydrogenase (GAPDH) was used as the endogenous control to ensure equal RNA amounts in each sample.
(§2) TaqMan® Gene Expression Assays were pre-formulated gene expression assays for rapid, reliable detection and quantification of human, mouse and rat mRNA transcripts. The PCR program used was: 50° C. for 2 minutes, 95° C. for 10 minutes, 40 cycles of 95° C. for 15 seconds, 60° C. for 1 minute. Data was analyzed using 7500 Real-Time PCR System Sequence Detection software v1.3 using the comparative CT relative quantification calculation method. The output was expressed as a fold-change of expression levels. The threshold level was selected to be automatically determined by the software and was set to be above the baseline but sufficiently low to be within the exponential growth region of an amplification curve. The cycle number at which the fluorescence signal associated with a particular amplicon accumulation crosses the threshold is referred to as the CT.
The effect of 1,3-dioxo-2-(2,6-dioxopiperidin-3-yl)-4-aminoisoindoline or 1-oxo-2-(2,6-dioxopiperidin-3-yl)-4-aminoisoindoline, either alone or in combination with Dexamethasone (10 nM) on the expression of several important genes involved in the regulation of NHL cell proliferation and survival was determined using Rec-1 cells (FIG. 1). The immunomodulatory compounds 1,3-dioxo-2-(2,6-dioxopiperidin-3-yl)-4-aminoisoindoline or 1-oxo-2-(2,6-dioxopiperidin-3-yl)-4-aminoisoindoline were added to the Rec-1 cells at a final concentration of 1, 10, or 100 μM. After 24 or 48 hours of incubation with 1,3-dioxo-2-(2,6-dioxopiperidin-3-yl)-4-aminoisoindoline or 1-oxo-2-(2,6-dioxopiperidin-3-yl)-4-aminoisoindoline, gene expression of VEGF, p21, p53, and cyclin D1 was measured using real-time PCR.

[2] = tested on: Jeko-1 cells; experiment: Real-time RT-PCR mRNA levels in Jeko-1 cells; settings: 24 hours
Method: as §1, §2
Jeko-1 cells were treated with immunomodulatory compounds, with or without dexamethasone (10 nM) for 24 hours. Total RNA was then isolated from the treated cells, and the samples were subjected to real-time RT-PCR analysis to determine gene transcription at the mRNA level. […] 1,3-dioxo-2-(2,6-dioxopiperidin-3-yl)-4-aminoisoindoline (at 10 μM) enhanced mRNA levels of these genes up to about 3-fold. 1-oxo-2-(2,6-dioxopiperidin-3-yl)-4-aminoisoindoline (1 μM) enhanced activin A mRNA level up to 2.6-fold, and SPARC was enhanced at 10 μM.

[3] = tested on: DB cell line; experiment: NHL cell proliferation, 3H-thymidine incorporation, DB cells; settings: DB (t(14;18)) cells
Method: (§3) NHL cell proliferation was assessed by 3H-thymidine incorporation assay. Briefly, cells were cultured in 96 well cell culture plates in complete RPMI-1640 medium in the presence and absence of drugs. Following incubation at 37° C. for 3 days, 1 μCi 3H-thymidine was added to each well for the last 5 hours of incubation. The 3H incorporation of each well was then measured.
(§4) To better understand how the effectiveness of immunomodulatory compound administration varies among different cancer cell types, the immunomodulatory compound 1-oxo-2-(2,6-dioxopiperidin-3-yl)-4-aminoisoindoline was tested in vitro for its anti-proliferative effect in several NHL cell lines after 1-3 days of treatment. The method utilized ^3H-thymidine incorporation, microbead array technology and real time PCR. The six tested cell lines were Namalwa, Jeko-1, Rec-1, Granta-519, DB, and JVM-2.

[4] = tested on: NHL cell lines (Namalwa, Jeko-1, Rec-1, Granta-519, DB, JVM-2); experiment: NHL cell proliferation, 3H-thymidine incorporation
Method: as §3, §4

[5] = tested on: Rec-1 cells; experiment: Rec-1 cell growth in the presence of rhVEGF or anti-VEGF antibody; settings: Rec-1 cells (FIG. 8)
Method: as §3

[6] = tested on: Jeko-1 cells; experiment: Luminex assay for VEGF production, Jeko-1; settings: 3 days
Method: (§5) Cells were treated with the drug for 3 days in 96 well plates. Cell culture supernatants were then collected for measurement of VEGF using Luminex/xMAP® technology.
(§6) 1-oxo-2-(2,6-dioxopiperidin-3-yl)-4-aminoisoindoline inhibited the production of the pro-angiogenic growth factor VEGF from anti-proliferation sensitive NHL cells, such as Namalwa, Jeko-1 and Rec-1 cells.

[7] = tested on: sensitive NHL cells; experiment: Luminex assay for VEGF production, sensitive NHL cells
Method: as §5, §6

[8] = tested on: Granta-519 cells; experiment: Luminex assay for VEGF production, Granta-519; settings: 3 days
Method: as §5, §6

[9] = tested on: Rec-1 cells; experiment: Luminex assay for VEGF production, Rec-1; settings: 3 days
Method: as §5, §6

[10] = tested on: Namalwa cells; experiment: Luminex assay for VEGF production, Namalwa; settings: 3 days
Method: as §5, §6

[11] = tested on: Namalwa cells; experiment: Proliferation of Namalwa cells after SPARC siRNA knockdown; settings: SPARC siRNA 200 nM, drug for 2 days
Method: as §3
Cells were transfected with SPARC or cyclophilin siGENME SMARTpool (Dharmacon, Lafayette, Colo.) at final concentration of 200 nM using DharmaFECT 2 transfection reagents following the manufacturer's protocol. After 24 hours of transfection, cells were then treated with the drug for 2 days.
SPARC siRNA was transfected to Namalwa cells to determine the effect of a SPARC knockdown on the antiproliferative effect of 1-oxo-2-(2,6-dioxopiperidin-3-yl)-4-aminoisoindoline in Namalwa cells. The anti-proliferative effect of 1-oxo-2-(2,6-dioxopiperidin-3-yl)-4-aminoisoindoline is weaker after SPARC knockdown compared to mock transfected control cells.

[12] = tested on: DB cells; experiment: Luminex assay for VEGF production, DB; settings: 3 days
Method: as §5, §6

[13] = tested on: NHL cells; experiment: Real-time RT-PCR gene expression in NHL cell lines
Method: as §1, §2
The effect of the administration of 1-oxo-2-(2,6-dioxopiperidin-3-yl)-4-aminoisoindoline in various NHL cells was measured after 24 hours of incubation, using real-time RT-PCR (FIG. 9).

[14] = tested on: Namalwa cells; experiment: Real-time RT-PCR gene expression in Namalwa cells
Method: as §1, §2
The effect of the administration of 1-oxo-2-(2,6-dioxopiperidin-3-yl)-4-aminoisoindoline in Namalwa cells after 48 hours of drug treatment was measured.
The effect of administration of 1-oxo-2-(2,6-dioxopiperidin-3-yl)-4-aminoisoindoline at various time points from 0 to 48 hours in the fold change in expression of several genes was measured in Namalwa cells (FIG. 11).

[15] = Namalwa cells, 10 μM, 2-48 hours

In the case of `Nc1cccc2c1C(=O)N(C1CCC(=O)NC1=O)C2=O` (centres unmarked) [1,3-dioxo-2-(2,6-dioxopiperidin-3-yl)-4-aminoisoindoline], the “VEGF mRNA level” value [1] is reported as “decrease”, the “p21 mRNA level” value [1] is reported as “increase” and the “enhancement of mRNA levels of p21, activin A and SPARC” value ([2]; 10 μM) is reported as “about 3 fold”. For the same molecule, the “SPARC mRNA level” value ([2]; 1-10 μM) was “up-regulate”, the “activin A mRNA level” value ([2]; 1-10 μM) was “up-regulate” and the “p21 mRNA level” value ([2]; 1-10 μM) was “up-regulate”. For the same molecule, the “effect on p21” value [2] was “clear enhancing effect”.
In the case of `Nc1cccc2c1CN(C1CCC(=O)NC1=O)C2=O` (centres unmarked) [1-oxo-2-(2,6-dioxopiperidin-3-yl)-4-aminoisoindoline], the “cell proliferation of DB cell line” value [3] is reported as “increased rate of cell proliferation”, the “VEGF mRNA level” value [1] is reported as “decrease” and the “p21 mRNA level” value [1] is reported as “increase”. For the same molecule, the “anti-proliferative activity against NHL cells” value ([4]; 1-3 days of treatment) was “demonstrated anti-proliferative activity”, the “order of sensitivity of NHL cell lines to the compound” value ([4]; 3 day incubation) was “Namalwa>Rec-1>Jeko-1>Granta-519>JVM-2>DB” and the “anti-proliferative activity on addition of exogenous recombinant human VEGF (in excess) or neutralizing VEGF antibody” value [5] was “does not affect”. The “enhancement of activin A mRNA level” value ([2]; 1 μM) was “up to 2.6 fold”, the “SPARC mRNA level” value ([2]; 10 μM) was “enhanced” and the “production of VEGF” value [6] was “inhibited”. For the same molecule, the “concentrations for the effect on VEGF compared with anti-proliferative effects” value [7] was “well below levels required for anti-proliferative effects”, the “production of the proangiogenic growth factor VEGF” value ([7]; FIG. 7) was “inhibits” and the “production of VEGF” value [8] was “fails to inhibit”. The “production of VEGF” value [9] was “inhibited”, the “production of VEGF” value [10] was “inhibited” and the “anti-proliferative effect after SPARC knockdown compared to mock transfected control cells” value [11] was “weaker”. The “production of VEGF” value [12] was “fails to inhibit”, the “VEGF mRNA expression” value ([13]; NHL cells) was “does not inhibit” and the “p21 in sensitive and resistant (DB) cells” value ([13]; both sensitive and resistant (DB) cells) was “elevated p21 was observed”. The “elevation of SPARC mRNA in resistant cells” value ([13]; resistant cells) was “not seen”, the SPARC expression ([13]; sensitive NHL cells, 24 hours) was “increased” and the p21cip/kip expression ([13]; sensitive NHL cells, 24 hours) was “increased”. The “SPARC mRNA expression” value ([13]; several NHL cell lines) was “increased expression of SPARC mRNA”, the p21cip/kip expression ([13]; several cell lines) was “increased” and the “change in expression of BlyS” value [14, 15] was “did not exhibit a significant change”. For the same molecule, the “change in expression of VEGF” value [14, 15] was “did not exhibit a significant change”, the “change in expression of cyclin D1” value [14, 15] was “did not exhibit a significant change” and the “change in expression of p53/p73” value [14, 15] was “did not exhibit a significant change”.
With `C[C@@H]1C[C@H]2[C@@H]3CCC4=CC(=O)C=C[C@]4(C)[C@@]3(F)[C@@H](O)C[C@]2(C)[C@@]1(O)C(=O)CO` [dexamethasone] the SPARC expression ([14]; dexamethasone alone, NHL cells such as Namalwa) was “no effect”.

From patent US20160153998A1, “BIOMARKERS FOR PREDICTING THE SENSITIVITY OF CELLS TO IMMUNOMODULATORY COMPOUNDS DURING TREATMENT OF NON-HODGKIN'S LYMPHOMA” (Celgene Corporation, priority 2007, published 2016)
